Test results from patent US20140163023A1, “DIHYDROPYRROLO PYRIMIDINE DERIVATIVES AS MTOR INHIBITORS” (Cellzome Limited, priority 2011, published 2014).

How the values were obtained:
[1] = biological target: T1, DNA-dependent protein kinase (DNA-PK) (Homo sapiens, UniProt P78527); test: kinobeads assay, DNA-PK; type: binding; details: 1:1 mix of Jurkat and Ramos cell lysates, read-out: Inhibition values (IC50 in μM) as determined in the kinobeads assay, DNA-PK
T1 construct: endogenous in cells; host or cells: Jurkat (ATCC TIB-152, clone E6-1) and Ramos (ATCC CRL-1596), 1:1 lysate mix
Experimental: (§1) The compounds of the present invention as described were tested in the mTOR kinobeads assay as described below. Briefly, test compounds (at various concentrations) and the affinity matrix (1:1 mixture of beads with immobilized phenylthiazole ligand 1 and beads with immobilized phenylmorpholin-chromen ligand; WO 2009/098021) were added to cell lysate aliquots and allowed to bind to the proteins in the lysate sample. After the incubation time the beads with captured proteins were separated from the lysate. Bound proteins were then eluted and the presence of mTOR, PI3Kα, PI3Kβ, PI3Kγ, PI3Kδ and DNA-dependent protein kinase (DNA-PK) was detected and quantified using a specific antibody in a dot blot procedure and the Odyssey infrared detection system. Dose response curves for individual kinases were generated and IC50 values calculated. Kinobeads assays for PI3 kinases (WO-A 2008/015013) and for kinase selectivity profiling (WO 2009/098021) have been previously described.
(§2) Washing of Affinity Matrix
(§3) The affinity matrix was washed two times with 15 ml of 1×DP buffer containing 0.2% NP40 (IGEPAL® CA-630, Sigma, #13021) and then resupended in 5.5 ml of 1×DP buffer containing 0.2% NP40 (10% beads slurry).
(§4) 5×DP buffer: 250 mM Tris-HCl pH 7.4, 25% Glycerol, 7.5 mM MgCl2, 750 mM NaCl, 5 mM Na3VO4, filter the 5×-lysis buffer through 0.22 μm filter and store in aliquots at −80° C. The 5×DP buffer is diluted to 1×DP buffer containing 1 mM DTT and 25 mM NaF.
(§5) Preparation of Test Compounds
(§6) Stock solutions of test compounds were prepared in DMSO. In a 96 well plate 30 μl solution of diluted test compounds at 5 mM in DMSO were prepared. Starting with this solution a 1:3 dilution series (9 steps) was prepared. For control experiments (no test compound) a buffer containing 2% DMSO was used. Compound Pi-103 (Calbiochem catalogue number 528100) served as a positive control.
(§7) Cell Culture and Preparation of Cell Lysates
(§8) Jurkat cells (ATCC catalogue number TIB-152 Jurkat, clone E6-1) and Ramos cells (ATCC number CRL-1596) were grown in 1 litre Spinner flasks (Integra Biosciences, #182101) in suspension in RPMI 1640 medium (Invitrogen, #21875-034) supplemented with 10% Fetal Bovine Serum (Invitrogen) at a density between 0.15×10^6 and 1.2×10^6 cells/ml. Cells were harvested by centrifugation, washed once with 1×PBS buffer (Invitrogen, #14190-094) and cell pellets were frozen in liquid nitrogen and subsequently stored at −80° C.
(§9) Cells were homogenized in a Potter S homogenizer in lysis buffer: 50 mM Tris-HCl, 0.8% NP40, 5% glycerol, 150 mM NaCl, 1.5 mM MgCl2, 25 mM NaF, 1 mM sodium vanadate, 1 mM DTT, pH 7.5. One complete EDTA-free tablet (protease inhibitor cocktail, Roche Diagnostics, 1873580) per 25 ml buffer was added. The material was dounced 10 times using a mechanized POTTER S, transferred to 50 ml falcon tubes, incubated for 30 minutes on ice and spun down for 10 min at 20,000 g at 4° C. (10,000 rpm in Sorvall SLA600, precooled). The supernatant was transferred to an ultracentrifuge (UZ)-polycarbonate tube (Beckmann, 355654) and spun for 1 hour at 100.000 g at 4° C. (33.500 rpm in Ti50.2, precooled). The supernatant was transferred again to a fresh 50 ml falcon tube, the protein concentration was determined by a Bradford assay (BioRad) and samples containing 50 mg of protein per aliquot were prepared. The samples were immediately used for experiments or frozen in liquid nitrogen and stored frozen at −80° C.
(§10) Cell lysate (approximately 50 mg protein per plate) was thawed in a water bath at room temperature and then kept on ice. To the thawed cell lysate 1×DP 0.8% NP40 buffer containing protease inhibitors (1 tablet for 25 ml buffer; EDTA-free protease inhibitor cocktail; Roche Diagnostics 1873580) was added in order to reach a final protein concentration of 5 mg/ml total protein. For the kinobeads experiment a 1:1 mix of Jurkat and Ramos cell lysates was used. The diluted cell lysate was stored on ice. […]

mTOR = biological target: T2, mTOR (Homo sapiens, UniProt P42345); test: mTOR kinobeads assay (competition binding in cell lysate, dot blot detection); details: 1:1 mix of Jurkat and Ramos cell lysates, read-out: Inhibition values (IC50 in μM) as determined in the kinobeads assay, mTor
T2 construct: endogenous in cells; host or cells: Jurkat (ATCC TIB-152, clone E6-1) and Ramos (ATCC CRL-1596), 1:1 lysate mix
Experimental: Determination of the Effect of the Compounds According to the Invention on mTOR
as §1, §2, §3, §4, §5, §6, §7, §8, §9
as §10, with “used.” for “used. The diluted cell lysate was stored on ice.”

PI3Kβ = biological target: T3, PI3Kβ (Homo sapiens, UniProt P42338); test: kinobeads assay, PI3Kβ; type: binding; details: 1:1 mix of Jurkat and Ramos cell lysates, read-out: Inhibition values (IC50 in μM) as determined in the kinobeads assay, PI3Kβ
T3 construct: endogenous in cells; host or cells: Jurkat (ATCC TIB-152, clone E6-1) and Ramos (ATCC CRL-1596), 1:1 lysate mix
Experimental: as §1, §2, §3, §4, §5, §6, §7, §8, §9, §10

PI3Kδ = biological target: T4, PI3Kδ (Homo sapiens, UniProt O00329); test: kinobeads assay, PI3Kδ; type: binding; details: 1:1 mix of Jurkat and Ramos cell lysates, read-out: Inhibition values (IC50 in μM) as determined in the kinobeads assay, PI3Kδ
T4 construct: endogenous in cells; host or cells: Jurkat (ATCC TIB-152, clone E6-1) and Ramos (ATCC CRL-1596), 1:1 lysate mix
Experimental: as §1, §2, §3, §4, §5, §6, §7, §8, §9, §10

PI3Kα = biological target: T5, PI3Kα (Homo sapiens, UniProt P42336); test: kinobeads assay, PI3Kα; type: binding; details: 1:1 mix of Jurkat and Ramos cell lysates, read-out: Inhibition values (IC50 in μM) as determined in the kinobeads assay, PI3Kα
T5 construct: endogenous in cells; host or cells: Jurkat (ATCC TIB-152, clone E6-1) and Ramos (ATCC CRL-1596), 1:1 lysate mix
Experimental: as §1, §2, §3, §4, §5, §6, §7, §8, §9, §10

PI3Kγ = biological target: T6, PI3Kγ (Homo sapiens, UniProt P48736); test: kinobeads assay, PI3Kγ; type: binding; details: 1:1 mix of Jurkat and Ramos cell lysates, read-out: Inhibition values (IC50 in μM) as determined in the kinobeads assay, PI3Kγ
T6 construct: endogenous in cells; host or cells: Jurkat (ATCC TIB-152, clone E6-1) and Ramos (ATCC CRL-1596), 1:1 lysate mix
Experimental: as §1, §2, §3, §4, §5, §6, §7, §8, §9, §10

T4 sequence (O00329 whole entry): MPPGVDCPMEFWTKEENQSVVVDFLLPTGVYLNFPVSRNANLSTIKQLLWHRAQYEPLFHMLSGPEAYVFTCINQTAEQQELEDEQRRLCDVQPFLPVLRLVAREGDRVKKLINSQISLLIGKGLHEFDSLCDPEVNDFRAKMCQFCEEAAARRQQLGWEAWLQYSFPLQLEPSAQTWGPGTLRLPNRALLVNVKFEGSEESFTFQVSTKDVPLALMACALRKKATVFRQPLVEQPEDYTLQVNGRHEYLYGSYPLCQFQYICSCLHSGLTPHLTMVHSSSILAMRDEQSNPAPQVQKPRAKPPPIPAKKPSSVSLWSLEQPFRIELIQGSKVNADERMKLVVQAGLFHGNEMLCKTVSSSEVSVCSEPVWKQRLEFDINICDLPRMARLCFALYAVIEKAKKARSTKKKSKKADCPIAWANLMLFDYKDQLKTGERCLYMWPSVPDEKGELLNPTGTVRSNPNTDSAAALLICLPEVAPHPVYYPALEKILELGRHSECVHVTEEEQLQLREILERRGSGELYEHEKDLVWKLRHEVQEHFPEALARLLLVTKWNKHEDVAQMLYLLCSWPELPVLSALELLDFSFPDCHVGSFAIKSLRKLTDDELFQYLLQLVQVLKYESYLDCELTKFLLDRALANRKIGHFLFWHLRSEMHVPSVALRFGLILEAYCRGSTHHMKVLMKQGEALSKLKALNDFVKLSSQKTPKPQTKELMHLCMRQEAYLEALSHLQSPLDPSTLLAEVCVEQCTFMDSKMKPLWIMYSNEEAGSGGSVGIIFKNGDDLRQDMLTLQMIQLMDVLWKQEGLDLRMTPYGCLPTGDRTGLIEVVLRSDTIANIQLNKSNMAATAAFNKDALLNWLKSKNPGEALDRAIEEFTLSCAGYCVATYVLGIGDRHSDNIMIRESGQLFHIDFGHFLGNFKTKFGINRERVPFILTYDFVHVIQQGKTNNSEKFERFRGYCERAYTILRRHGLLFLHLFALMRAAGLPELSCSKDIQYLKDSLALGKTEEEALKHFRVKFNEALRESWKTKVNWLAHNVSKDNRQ
T4 sequence (P27986 whole entry partner): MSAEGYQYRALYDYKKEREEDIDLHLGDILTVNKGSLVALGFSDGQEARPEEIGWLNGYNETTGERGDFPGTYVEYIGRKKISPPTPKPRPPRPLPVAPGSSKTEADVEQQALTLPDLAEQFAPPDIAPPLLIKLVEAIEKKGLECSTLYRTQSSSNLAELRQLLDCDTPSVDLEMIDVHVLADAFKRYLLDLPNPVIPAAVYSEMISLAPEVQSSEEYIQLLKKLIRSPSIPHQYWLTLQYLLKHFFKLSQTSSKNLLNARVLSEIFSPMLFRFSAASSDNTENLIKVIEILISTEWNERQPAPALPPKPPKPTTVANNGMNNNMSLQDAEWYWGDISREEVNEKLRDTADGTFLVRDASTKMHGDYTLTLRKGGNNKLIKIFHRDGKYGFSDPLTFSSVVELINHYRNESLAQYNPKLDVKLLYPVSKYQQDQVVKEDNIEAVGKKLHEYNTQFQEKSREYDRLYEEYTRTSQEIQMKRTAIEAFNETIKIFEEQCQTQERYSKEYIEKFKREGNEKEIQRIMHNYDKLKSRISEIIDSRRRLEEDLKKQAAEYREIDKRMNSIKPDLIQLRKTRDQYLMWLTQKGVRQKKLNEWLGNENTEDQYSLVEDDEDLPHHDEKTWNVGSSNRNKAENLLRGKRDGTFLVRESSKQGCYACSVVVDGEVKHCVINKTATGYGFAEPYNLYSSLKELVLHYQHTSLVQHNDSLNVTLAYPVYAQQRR
T5 sequence (P42336 whole entry): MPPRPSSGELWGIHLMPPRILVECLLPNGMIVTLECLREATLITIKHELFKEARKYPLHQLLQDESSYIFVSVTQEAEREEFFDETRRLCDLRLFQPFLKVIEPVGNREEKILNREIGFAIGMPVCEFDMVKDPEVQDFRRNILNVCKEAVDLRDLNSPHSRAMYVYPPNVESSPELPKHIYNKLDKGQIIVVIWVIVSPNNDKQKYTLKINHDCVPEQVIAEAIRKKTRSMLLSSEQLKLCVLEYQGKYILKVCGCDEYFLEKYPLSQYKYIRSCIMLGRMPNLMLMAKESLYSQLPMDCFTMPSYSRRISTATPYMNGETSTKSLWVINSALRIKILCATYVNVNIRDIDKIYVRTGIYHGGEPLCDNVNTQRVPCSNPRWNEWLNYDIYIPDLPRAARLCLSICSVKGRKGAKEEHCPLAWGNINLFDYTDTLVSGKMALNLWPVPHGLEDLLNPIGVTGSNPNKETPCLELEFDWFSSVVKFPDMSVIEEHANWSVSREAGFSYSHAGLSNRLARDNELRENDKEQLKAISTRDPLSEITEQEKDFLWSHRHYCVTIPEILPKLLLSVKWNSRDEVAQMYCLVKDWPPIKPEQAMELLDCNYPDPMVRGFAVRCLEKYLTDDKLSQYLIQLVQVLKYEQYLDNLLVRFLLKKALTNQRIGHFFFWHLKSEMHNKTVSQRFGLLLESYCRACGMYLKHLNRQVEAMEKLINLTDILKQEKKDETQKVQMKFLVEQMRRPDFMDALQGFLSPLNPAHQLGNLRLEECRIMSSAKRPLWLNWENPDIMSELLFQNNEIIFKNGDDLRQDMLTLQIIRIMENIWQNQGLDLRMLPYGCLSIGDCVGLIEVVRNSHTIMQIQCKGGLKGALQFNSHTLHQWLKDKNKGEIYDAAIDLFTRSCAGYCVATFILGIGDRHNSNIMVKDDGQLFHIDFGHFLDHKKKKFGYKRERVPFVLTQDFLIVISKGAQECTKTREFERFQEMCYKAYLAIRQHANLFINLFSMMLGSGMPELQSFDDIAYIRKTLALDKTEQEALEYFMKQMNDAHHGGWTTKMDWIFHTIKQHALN
T5 sequence (P27986 whole entry partner): as the sequence (P27986 whole entry partner) above
T3 sequence (P42338 whole entry): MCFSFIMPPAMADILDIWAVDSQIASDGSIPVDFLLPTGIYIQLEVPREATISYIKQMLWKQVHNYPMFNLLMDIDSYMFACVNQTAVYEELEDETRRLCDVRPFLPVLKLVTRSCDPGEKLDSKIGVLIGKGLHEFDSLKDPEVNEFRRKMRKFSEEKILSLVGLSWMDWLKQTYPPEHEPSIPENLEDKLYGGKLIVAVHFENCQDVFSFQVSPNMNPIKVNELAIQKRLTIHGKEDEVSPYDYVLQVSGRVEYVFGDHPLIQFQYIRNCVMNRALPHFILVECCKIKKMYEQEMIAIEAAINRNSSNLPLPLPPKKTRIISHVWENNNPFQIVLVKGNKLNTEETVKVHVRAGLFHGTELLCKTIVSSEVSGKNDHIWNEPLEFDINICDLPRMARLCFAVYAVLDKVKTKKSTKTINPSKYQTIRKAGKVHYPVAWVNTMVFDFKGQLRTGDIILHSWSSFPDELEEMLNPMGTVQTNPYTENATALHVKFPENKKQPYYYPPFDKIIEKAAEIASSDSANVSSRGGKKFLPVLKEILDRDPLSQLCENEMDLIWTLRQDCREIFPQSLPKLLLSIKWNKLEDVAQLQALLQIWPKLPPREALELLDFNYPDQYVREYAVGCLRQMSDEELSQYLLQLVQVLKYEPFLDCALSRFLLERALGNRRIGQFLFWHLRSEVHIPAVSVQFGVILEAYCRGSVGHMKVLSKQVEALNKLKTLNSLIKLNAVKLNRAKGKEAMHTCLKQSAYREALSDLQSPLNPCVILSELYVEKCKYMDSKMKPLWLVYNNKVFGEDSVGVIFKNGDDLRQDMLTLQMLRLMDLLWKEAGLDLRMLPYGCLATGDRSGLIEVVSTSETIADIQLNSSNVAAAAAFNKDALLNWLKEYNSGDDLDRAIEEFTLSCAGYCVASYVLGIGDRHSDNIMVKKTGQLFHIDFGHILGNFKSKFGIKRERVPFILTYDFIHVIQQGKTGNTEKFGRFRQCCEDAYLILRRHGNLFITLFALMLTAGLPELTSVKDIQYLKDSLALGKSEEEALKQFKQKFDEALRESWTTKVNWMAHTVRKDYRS
T3 sequence (P27986 whole entry partner): as the sequence (P27986 whole entry partner) above
T6 sequence (P48736 whole entry): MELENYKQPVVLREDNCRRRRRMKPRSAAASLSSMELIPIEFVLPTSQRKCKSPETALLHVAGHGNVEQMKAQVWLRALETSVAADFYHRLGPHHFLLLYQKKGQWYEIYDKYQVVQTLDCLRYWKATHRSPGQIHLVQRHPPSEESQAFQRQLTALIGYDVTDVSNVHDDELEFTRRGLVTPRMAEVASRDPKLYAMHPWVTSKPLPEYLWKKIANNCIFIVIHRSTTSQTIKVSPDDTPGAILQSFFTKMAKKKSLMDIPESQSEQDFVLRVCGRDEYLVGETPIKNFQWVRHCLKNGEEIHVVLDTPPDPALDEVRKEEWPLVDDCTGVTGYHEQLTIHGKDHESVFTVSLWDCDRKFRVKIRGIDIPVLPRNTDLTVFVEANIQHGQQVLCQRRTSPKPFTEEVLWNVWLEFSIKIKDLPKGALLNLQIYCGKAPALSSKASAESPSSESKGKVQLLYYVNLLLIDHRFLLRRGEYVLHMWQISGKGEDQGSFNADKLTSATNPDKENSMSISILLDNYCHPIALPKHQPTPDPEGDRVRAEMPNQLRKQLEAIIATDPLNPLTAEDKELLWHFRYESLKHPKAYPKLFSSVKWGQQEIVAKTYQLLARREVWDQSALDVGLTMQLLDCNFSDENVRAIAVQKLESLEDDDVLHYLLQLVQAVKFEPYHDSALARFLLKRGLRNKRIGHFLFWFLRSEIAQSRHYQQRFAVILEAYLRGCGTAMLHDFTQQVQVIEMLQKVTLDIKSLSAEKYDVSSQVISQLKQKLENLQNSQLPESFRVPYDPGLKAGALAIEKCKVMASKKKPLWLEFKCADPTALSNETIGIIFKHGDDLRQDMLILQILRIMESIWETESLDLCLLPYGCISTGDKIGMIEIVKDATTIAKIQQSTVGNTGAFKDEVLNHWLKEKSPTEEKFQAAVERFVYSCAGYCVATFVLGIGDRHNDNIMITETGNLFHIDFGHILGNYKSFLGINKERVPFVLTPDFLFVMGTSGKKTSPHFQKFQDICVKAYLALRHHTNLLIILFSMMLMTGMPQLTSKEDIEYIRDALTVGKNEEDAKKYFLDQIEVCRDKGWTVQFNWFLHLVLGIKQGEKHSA

Structure (SMILES) | IC50 [1] [µM] | IC50 (mTOR) [µM] | IC50 (PI3Kβ) [µM] | IC50 (PI3Kδ) [µM] | IC50 (PI3Kα) [µM] | IC50 (PI3Kγ) [µM]
CC(C)N1Cc2nc(N3CCOC[C@@H]3C)nc(-c3ccc(NC(=O)NCCO)cc3)c2C1 [Example 34, (S)-1-(2-hydroxyethyl)-3-(4-(6-isopropyl-2-(3-methylmorpholino)-6,7-dihydro-5H-pyrrolo[3,4-d]pyrimidin-4-yl)phenyl)urea 2,2,2-trifluoroacetate] | > 100 | 0.1 to 1 | 10 to 100 | 10 to 100 | 10 to 100 | 10 to 100
C[C@H]1COCCN1c1nc2c(c(-c3ccc(NC(=O)NCCO)cc3)n1)CN(S(C)(=O)=O)C2 [Example 36, (S)-1-(2-hydroxyethyl)-3-(4-(2-(3-methylmorpholino)-6-(methylsulfonyl)-6,7-dihydro-5H-pyrrolo[3,4-d]pyrimidin-4-yl)phenyl)urea] | > 100 | 0.1 to 1 | 10 to 100 | 10 to 100 | 10 to 100 | 1 to 10
CCNC(=O)N1Cc2nc(N3CCOC[C@@H]3C)nc(-c3ccc(NC(=O)NCCO)cc3)c2C1 [Example 37, (S)—N-ethyl-4-(4-(3-(2-hydroxyethyl)ureido)phenyl)-2-(3-methylmorpholino)-5H-pyrrolo[3,4-d]pyrimidine-6(7H)-carboxamide] | 10 to 100 | 0.1 to 1 | 10 to 100 | 10 to 100 | 1 to 10 | 10 to 100

The next lines start with the values.

IC50 [1] [µM] | IC50 (mTOR) [µM] | IC50 (PI3Kβ) [µM] | IC50 (PI3Kδ) [µM] | IC50 (PI3Kα) [µM] | IC50 (PI3Kγ) [µM] | Structure (SMILES)
> 100 | 1 to 10 | > 100 | > 100 | > 100 | > 100 | C[C@H]1COCCN1c1nc2c(c(-c3ccc(NC(=O)NC4CC4)cc3)n1)CN(S(=O)(=O)C1CC1)C2 [Example 35, (S)-1-cyclopropyl-3-(4-(6-(cyclopropylsulfonyl)-2-(3-methylmorpholino)-6,7-dihydro-5H-pyrrolo[3,4-d]pyrimidin-4-yl)phenyl)urea]
> 100 | 1 to 10 | > 100 | > 100 | > 100 | > 100 | C[C@H]1COCCN1c1nc2c(c(-c3ccc(NC(=O)NCCO)cc3)n1)CN(C1CCCCC1)C2 [Example 38, (S)-1-(4-(6-cyclohexyl-2-(3-methylmorpholino)-6,7-dihydro-5H-pyrrolo[3,4-d]pyrimidin-4-yl)phenyl)-3-(2-hydroxyethyl)urea]
10 to 100 | 0.1 to 1 | 10 to 100 | 1 to 10 | 10 to 100 | 10 to 100 | CC(=O)N1Cc2nc(N3CCOC[C@@H]3C)nc(-c3ccc(NC(=O)NCCO)cc3)c2C1 [Example 39, (S)-1-(4-(6-acetyl-2-(3-methylmorpholino)-6,7-dihydro-5H-pyrrolo[3,4-d]pyrimidin-4-yl)phenyl)-3-(2-hydroxyethyl)urea]
> 100 | 1 to 10 | 10 to 100 | 10 to 100 | 10 to 100 | > 100 | C[C@H]1COCCN1c1nc2c(c(-c3ccc(NC(=O)NC4CC4)cc3)n1)CN(C(=O)C1CCOC1)C2 (stereo partly drawn) [Example 40, 1-cyclopropyl-3-(4-(2-((S)-3-methylmorpholino)-6-(tetrahydrofuran-3-carbonyl)-6,7-dihydro-5H-pyrrolo[3,4-d]pyrimidin-4-yl)phenyl)urea 2,2,2-trifluoroacetate]
